Test results from patent publication US20040029965A1, “Formulations for reducing or eliminating toxicity of enviromental hormones containing ursodeoxycholic acid” (priority 2000, published 2004).
Marks after values point to notes of the source that are not given here.

Tested on: C57B1/6J mice
Assay: Hematological changes in mice by a single subcutaneous injection of TCDD
Type: in vivo
Parameters: NEU / LYM / PLT: unit not given here
Experimental: Male C57B1/6J mice of 5 weeks old having the average weight of 18-22 g which had been bred in CRJ (Charles River in Japan) were purchased and used in this example as experimental animals. Those mice were acclimated under the constant breeding condition, i.e. the temperature of 24±1° C., the humidity of 60±10% and the light and darkness cycle of 12 hours, for one week and thereafter, utilized in the experiment.
2,3,7,8-tetrachlorodibenzo-p-dioxin (TCDD) dissolved in toluene (purity of 95% or more as a result of gas chromatography analysis), manufactured by Chem. Services Inc. in USA, was volatilized with nitrogen to obtain powder. The obtained powder was dissolved in a mixed solvent containing acetone and corn oil with a volume ratio of 1:6. The resulting solution each containing 110, 27.5 and 6.9 μg/kg of TCDD was subcutaneously injected to mice at a volume of 5 ml per body weight. […] The mice were supplied with the feed from 10 days before (pre-administration) to 60 days after administration of TCDD (post-administration).
Upon completion of the experiment for 60 days, the experimental animals were fasted for 24 hours and anesthetized with ether. Then, they were abdominally incised and blood was gathered from abdominal vena cava. They were sacrificed by the release of blood. Liver, kidneys, testes and epididymides were extracted and all the extracted organs were weighed. Only the testes were separately kept and observed under optical and electron microscopes. For biochemical finding test, serum was separated from blood with a centrifuge and the separated serum was analyzed with an automated blood biochemical analyzer, Dimension (Dupont, USA). Blood was put to another blood gathering bottle and then, analyzed with an automated blood cell analyzer, Celldyn (Abbott, USA).
The results are expressed as Mean±Standard Deviation values. For statistical analysis of the body weight, feed and water uptake, biochemical findings, hematological findings and the weight of organ in an acute toxicity test, verification was performed by one way analysis of variance (ANOVA) in case of equal distribution. In case significance was recognized in ANOVA, the Student's t-test was performed in the levels of p<0.05 and p<0.01.
For hematological findings, white blood cell (WBC), neutrophil (NEU), lymphocyte (LYM), monocyte (MONO), eosinophil (EOS), basophil (BASO) and red blood cell (RBC) counts, and hemoglobin concentration (HGB), hematocrit (HCT), mean cell volume (MCV), mean corpuscular hemoglobin (MCH), mean corpuscular hemoglobin concentration (MCHC), red blood cell distribution width (RDW) and platelet count (PLT) were measured and the results are as follows.

[1] = TCDD 6.9 μg/kg + UDCA 0.125 wt %
[2] = TCDD 6.9 μg/kg + UDCA 0.25 wt %
[3] = TCDD 27.5 μg/kg + UDCA 0.125 wt %
[4] = TCDD 27.5 μg/kg + UDCA 0.25 wt %

In the case of C[C@H](CCC(=O)O)[C@H]1CC[C@H]2[C@@H]3[C@@H](O)C[C@@H]4C[C@H](O)CC[C@]4(C)[C@H]3CC[C@]12C [UDCA, 3α, 7β-dihydroxy-5β-cholanoic acid], the BASO [1] is reported as 0.12 ± 0.07 10^3, the EOS [1] is reported as 0.004 ± 0.005 10^3 and the HCT [1] is reported as 44.61 ± 1.14%. For the same compound, the HGB [1] was 14.35 ± 0.37 g/dL, the LYM [1] was 5.06 ± 1.70 10^3 and the MCH [1] was 14.87 ± 0.22 pg. For the same compound, the MCHC [1] was 32.18 ± 0.43 g/dL, the MCV [1] was 46.18 ± 0.55 fL and the MONO [1] was 0.05 ± 0.06 10^3. The NEU [1] was 0.32 ± 0.13 10^3, the PLT [1] was 1117.7 ± 88.65 10^3 and the RBC [1] was 9.66 ± 0.24 10^6. The RDW [1] was 20.17 ± 1.07%, the WBC [1] was 5.55 ± 1.91 10^3 and the BASO [2] was 0.09 ± 0.04 10^3. The EOS [2] was 0.003 ± 0.002 10^3, the HCT [2] was 44.77 ± 1.57% and the HGB [2] was 14.16 ± 0.44 g/dL. The LYM [2] was 5.17 ± 1.49 10^3, the MCH [2] was 15.04 ± 0.25 pg and the MCHC [2] was 31.63 ± 0.58 g/dL. For the same compound, the MCV [2] was 47.56 ± 0.81 fL, the MONO [2] was 0.04 ± 0.02 10^3 and the NEU [2] was 0.28 ± 0.07 10^3. The PLT [2] was 1141.22 ± 67.79 10^3, the RBC [2] was 9.42 ± 0.37 10^6 and the RDW [2] was 19.73 ± 0.91%. For the same compound, the WBC [2] was 5.68 ± 1.50 10^3, the BASO (TCDD 6.9 μg/kg + UDCA 0.5 wt %) was 0.10 ± 0.06 10^3 and the EOS (TCDD 6.9 μg/kg + UDCA 0.5 wt %) was 0.002 ± 0.002 10^3. The HCT (TCDD 6.9 μg/kg + UDCA 0.5 wt %) was 45.35 ± 0.93%, the HGB (TCDD 6.9 μg/kg + UDCA 0.5 wt %) was 14.47 ± 0.29 g/dL and the LYM (TCDD 6.9 μg/kg + UDCA 0.5 wt %) was 5.12 ± 1.13 10^3. The MCH (TCDD 6.9 μg/kg + UDCA 0.5 wt %) was 14.98 ± 0.19 pg, the MCHC (TCDD 6.9 μg/kg + UDCA 0.5 wt %) was 31.87 ± 0.41 g/dL and the MCV (TCDD 6.9 μg/kg + UDCA 0.5 wt %) was 47.08 ± 0.63 fL. For the same compound, the MONO (TCDD 6.9 μg/kg + UDCA 0.5 wt %) was 0.04 ± 0.03 10^3, the NEU (TCDD 6.9 μg/kg + UDCA 0.5 wt %) was 0.34 ± 0.11 10^3 and the PLT (TCDD 6.9 μg/kg + UDCA 0.5 wt %) was 1112.89 ± 76.53 10^3. For the same compound, the RBC (TCDD 6.9 μg/kg + UDCA 0.5 wt %) was 9.64 ± 0.26 10^6, the RDW (TCDD 6.9 μg/kg + UDCA 0.5 wt %) was 20.19 ± 0.72% and the WBC (TCDD 6.9 μg/kg + UDCA 0.5 wt %) was 5.76 ± 1.13 10^3. The BASO [3] was 0.09 ± 0.04 10^3, the EOS [3] was 0.002 ± 0.003 10^3 and the HCT [3] was 43.77 ± 1.37 %. The HGB [3] was 14.64 ± 0.67 g/dL, the LYM [3] was 2.06 ± 0.81 10^3 and the MCH [3] was 15.32 ± 0.39 pg. The MCHC [3] was 33.65 ± 1.04 g/dL, the MCV [3] was 45.51 ± 0.35 fL and the MONO [3] was 0.02 ± 0.01 10^3. For the same compound, the NEU [3] was 0.34 ± 0.10## 10^3, the PLT [3] was 1172.44 ± 80.58## 10^3 and the RBC [3] was 9.61 ± 0.29 10^6. For the same compound, the RDW [3] was 20.08 ± 1.20%, the WBC [3] was 3.69 ± 0.72 10^3 and the BASO [4] was 0.18 ± 0.07 10^3. For the same compound, the EOS [4] was 0.008 ± 0.007 10^3, the HCT [4] was 43.65 ± 1.24 % and the HGB [4] was 14.23 ± 0.55 g/dL. For the same compound, the LYM [4] was 2.99 ± 1.06## 10^3, the MCH [4] was 15.01 ± 0.44 pg and the MCHC [4] was 32.58 ± 0.73 g/dL. For the same compound, the MCV [4] was 46.09 ± 0.42 fL, the MONO [4] was 0.05 ± 0.03 10^3 and the NEU [4] was 0.48 ± 0.09## 10^3. The PLT [4] was 1069.70 ± 128.48## 10^3.
